Numbers after ± are expanded uncertainties.
Conditions: Liquid; for mass density: 298.15 K, 101.33 kPa

| mass density [kg/m3] | Normal boiling temperature [°C] | SMILES |
| --- | --- | --- |
| 1058.6 ± 5 | 75.42 ± 0.1 | C1COCO1 [1,3-dioxolane] |
| 786.7 ± 5 | 64.54 ± 0.1 | CO [methanol] |
| 997.2 ± 5 | 99.98 ± 0.1 | O [water] |

— the NIST ThermoML archive (doi:10.1021/je0201166)
